Measured values from PMC8922281, “Synthesis and In Vitro Biological Evaluation of Quinolinyl Pyrimidines Targeting Type II NADH-Dehydrogenase (NDH-2)” (ACS Infectious Diseases, 2022).
pIC50: −log10 of the molar value. ≈ marks a conversion by molar mass, not a printed value. Where “and” joins values, the source holds several entries; their conditions need not be identical. Equal entries are not always repeated. Where two headings read alike, the source gives them in different places.

Key:
[1] = test system: Trypanosoma cruzi Tulahuen LacZ (clone C4); assay: Trypanosoma cruzi growth on MRC-5 cells (CPRG); conditions: MRC5, 168 h, read-out: IC50 Trypanosoma cruzi
Procedure: In vitro biology: Minimum inhibitory concentration (MIC) assays on parasites Synthesized compounds were tested against different parasite cell lines (T. brucei, T. cruzi, and P. falciparum K1) for the MIC determination.
Trypanosoma cruzi cells were maintained on MRC-5 human lung fibroblast cells. The assay was performed with 5% CO2 at 37 °C in a 96-well microtiter plate. Each well contains 10 µl compound dilution and 190 µl parasite/MRC-5 cell inoculum (10:1 parasites : cells). Parasite burdens were evaluated with addition of substrate CPRG (50 µl/well stock solution with 15.2mg CPRG + 250 µl Nonidet in 100 ml PBS). After 4h incubation, the absorbance change was measured spectrophotometrically at 540 nm at 37 °C. The res ults were presented as % growth, compared with non-infected cells (0% growth) and untreated-infected controls (100 % growth) after 7-day incubation, and the

P. falciparum K1 = assay: Plasmodium falciparum K1 growth (Malstat); format: cell-based; conditions: reference compound, 72 h
Procedure: acceptor at a range of concentrations.
2.1.3. IC50 determination
Compounds were pre-incubated
IC50 is calculated. […] The […]
of PES (phenazine ethosulfate, 0.1 mg/ml) and NBT (Nitro Blue Tetrazolium Grade III, 2 mg/ml) in a new plate. The absorbance change was measured at 655nm. The results were shown as % reduction in parasitemia, compared to control wells with no treatment.
3. Trypanosoma brucei sample has 7*104 parasites/ml in the suspension. Cultured for 3 days, the growth of the cells was assessed fluorimetrically with the addition of resazurin in a microtiter plate. The fluorescence intensity was measured after 24h at 37 °C with the excitation wavelength at 550nm and the emission wavelength at 590nm. The results were presented as % reduction in parasite growth, compared to reference wells with no treatment, followed by IC50 calculation. Suramine was used as the reference compound […]
A compound with IC50 higher than 5 µM is classified as the […]
subsequently evaluated in a secondary assay, with broader concentration range, additional references, and other species.
IC50 values are shown in Table S1, followed by semi-quantitative activity scores, and indications for specificity. […]

[2] = test system: E. coli (ATCC 25922, wild-type); assay: MIC on ESKAPE pathogens, E. coli wild-type; format: cell-based; conditions: Escherichia coli
MtNDH-2 = MtNDH-2 (Mycobacterium tuberculosis, UniProt P95160); assay: biochemical; parameters: species or system M. tuberculosis; conditions: MtNDH-2 IC50
MtNDH-2, sequence (P95160 2-463, added parts left off): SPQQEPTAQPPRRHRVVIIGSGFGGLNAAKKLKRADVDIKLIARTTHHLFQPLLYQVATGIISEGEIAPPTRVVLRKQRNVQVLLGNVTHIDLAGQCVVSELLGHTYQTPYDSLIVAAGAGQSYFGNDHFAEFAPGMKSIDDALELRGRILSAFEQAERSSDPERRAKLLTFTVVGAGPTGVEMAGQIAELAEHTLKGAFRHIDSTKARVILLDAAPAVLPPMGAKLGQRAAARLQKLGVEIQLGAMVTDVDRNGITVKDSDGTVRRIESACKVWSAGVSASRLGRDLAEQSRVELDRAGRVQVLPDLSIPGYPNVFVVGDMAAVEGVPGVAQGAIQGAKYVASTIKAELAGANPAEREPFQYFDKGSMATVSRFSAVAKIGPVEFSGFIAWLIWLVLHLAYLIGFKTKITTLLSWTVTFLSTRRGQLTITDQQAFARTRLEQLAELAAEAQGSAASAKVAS

[3] = test system: K. pneumonia (ATCC 13833, wild-type); assay: MIC on ESKAPE pathogens, K. pneumoniae
[4] = test system: S. aureus (ATCC 29213, wild-type); assay: MIC on ESKAPE pathogens, S. aureus; format: cell-based; conditions: Staphylococcus aureus, ATCC29213
[5] = test system: E. coli MG1655 ΔtolC resistant mutants; assay: microbe, parasite or virus in culture; format: cell-based; conditions: for MIC: Escherichia coli
[6] = test system: M. tuberculosis strain H37Rv (ATCC 25618); assay: MIC on M. tuberculosis by resazurin reduction microplate assay (REMA); format: cell-based; conditions: Mycobacterium tuberculosis
[7] = test system: E. coli (D22, lpxC mutant, drug-hypersensitive); assay: microbe, parasite or virus in culture; format: cell-based; conditions: Escherichia coli, read-out: MIC Ec D22
[8] = test system: P. aeruginosa (PAO750 efflux-defective mutant, isogenic to PAO1); assay: microbe, parasite or virus in culture; format: cell-based; conditions: Pseudomonas aeruginosa, PAO1, read-out: MIC Pa efflux
[9] = Cytotoxicity on the MRC-5 cell line (resazurin); format: cell-based; conditions: human, MRC-5SV2 cells, MRC-5SV2, 3 days
Procedure: MRC-5SV2 cells were cultured in Earl’s MEM + 5% FCSi. Assays were performed in 96-well microtiter plates, each well containing about 10^4 cells/well. After 3 days of incubation with or without compounds, cell viability was assessed fluorimetrically after the addition of resazurin (λex 550 nm, λem 590 nm). The results were expressed as % reduction in cell growth/viability compared to untreated control wells and CC50 was determined. Testing/retesting strategy was as described above for HepG2 cells.

[10] = test system: A. baumannii (ATCC 19606, wild-type); assay: MIC on ESKAPE pathogens, A. baumannii; format: cell-based; conditions: Acinetobacter baumannii, ATCC19606; A. baumannii ATCC 19606, wild-type; read-out: MIC Ab WT
[11] = test system: P. aeruginosa (PAO1, wild-type); assay: MIC on ESKAPE pathogens, P. aeruginosa wild-type; format: cell-based; conditions: Pseudomonas aeruginosa
MsNDH-2 = MsNDH-2 (Mycolicibacterium smegmatis, UniProt A0QYD6); assay: Inhibition of MsNDH-2 (NADH oxidation with menadione, absorbance at 340 nm); format: biochemical, M. smegmatis
MsNDH-2, sequence (A0QYD6 1-457): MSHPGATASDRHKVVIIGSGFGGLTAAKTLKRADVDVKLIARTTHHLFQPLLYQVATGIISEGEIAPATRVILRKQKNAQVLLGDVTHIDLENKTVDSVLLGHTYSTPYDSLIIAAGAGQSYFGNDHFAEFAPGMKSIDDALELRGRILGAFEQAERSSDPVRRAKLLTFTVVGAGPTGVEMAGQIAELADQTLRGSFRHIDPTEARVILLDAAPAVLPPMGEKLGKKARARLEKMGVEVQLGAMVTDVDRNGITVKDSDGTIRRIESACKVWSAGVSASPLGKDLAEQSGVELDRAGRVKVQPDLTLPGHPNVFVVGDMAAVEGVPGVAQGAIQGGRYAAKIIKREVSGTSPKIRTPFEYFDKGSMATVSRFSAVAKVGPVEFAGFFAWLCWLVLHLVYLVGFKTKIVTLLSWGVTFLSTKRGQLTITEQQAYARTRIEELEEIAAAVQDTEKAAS

[12] = test system: E. coli (ΔtolC efflux-defective mutant, isogenic to ATCC 25922); assay: microbe, parasite or virus in culture; format: cell-based; conditions: Escherichia coli, ATCC25922, read-out: MIC Ec ΔtolC
[13] = test system: P. aeruginosa PAO1 resistant mutants; assay: microbe, parasite or virus in culture; format: cell-based
HepG2 cells = conditions: human, 72 h
[14] = M. tuberculosis H37Rv, read-out: MIC Mtb
[15] = 95% confidence interval in parentheses, 50 nM enzyme, 50 μM menadione, >100: no significant inhibition at 100 μM
[16] = same IC50 given in μg/mL to assist comparisons with MICs
[17] = ATCC25922, E. coli ATCC 25922, wild-type, read-out: MIC Ec WT
[18] = PAO1, P. aeruginosa PAO1, wild-type, read-out: MIC Pa WT
[19] = H37Rv, reference antitubercular agents, read-out: MIC M. tuberculosis

SMILES | pIC50 (MtNDH-2) | MIC Kp WT [3] [µg/mL] | MIC [4] [µg/mL] | MIC [6, 14] [µg/mL] | MIC [7] [µg/mL] | MIC [8] [µg/mL] | IC50 at 3 days ([9]; resazurin) [µM] | IC50 at 3 days ([9]; value in parentheses) [µg/mL] | MIC [10] [µg/mL] | pIC50 (MsNDH-2; [15]) | pIC50 (MsNDH-2; [16]) | MIC [12] [µg/mL] | MIC [2, 17] [µg/mL] | MIC [11, 18] [µg/mL] | further results
O=C(Cn1ccnc1[N+](=O)[O-])NCc1ccccc1 [Benznidazole] |  |  |  |  |  |  |  |  |  |  |  |  |  |  | pIC50 [1]: 5.77
CCN(CC)CCCC(C)Nc1ccnc2cc(Cl)ccc12 (stereo not drawn) [Chloroquine] |  |  |  |  |  |  |  |  |  |  |  |  |  |  | pIC50 (P. falciparum K1): 6.68
CC(C)(C)OC(=O)NCC1CCN(c2cc(Nc3ccc4nc(-c5ccc(F)cc5)cc(N)c4c3)nc(N)n2)CC1 [Compound 8g, tert-Butyl ((1-(2-Amino-6-((4-amino-2-(4-fluorophenyl)quinolin-6-yl)amino)pyrimidin-4-yl)piperidin-4-yl)methyl)carbamate] | 6.54 | 128 (≈ 229 µM) | 4 (≈ 7.16 µM) | 6.8 | 4 (≈ 7.16 µM) | 128 (≈ 229 µM) | 1.4 | 0.8 | 4 (≈ 7.16 µM) | 6.24 | 6.27 | 4 (≈ 7.16 µM) |  |  | MIC ([2]; ATCC25922, read-out: MIC Ec WT): > 128 µg/mL; MIC ([5]; MG1655, read-out: MIC mutant, mutant CH5053 raised against 8g, ackA Leu255Arg): 16 µg/mL (≈ 28.6 µM); MIC ([5]; MG1655, read-out: MIC mutant, mutant CH5054 raised against 8g, ackA Glu375 stop codon): 16 µg/mL (≈ 28.6 µM); MIC ([5]; MG1655, read-out: MIC mutant, mutant CH5055 raised against 8g, ackA Thr233Pro): 16 µg/mL (≈ 28.6 µM); MIC ([5]; MG1655, read-out: MIC mutant, mutant CH5056 raised against 8g, ackA Gly275Asp): 16 µg/mL (≈ 28.6 µM); MIC ([5]; MG1655, read-out: MIC mutant, mutant CH5057 raised against 8g, eno Pro38Leu): 8 µg/mL (≈ 14.3 µM); MIC ([5]; MG1655, read-out: MIC mutant, mutant CH5058 raised against 8g, ackA Ile92fs): 16 µg/mL (≈ 28.6 µM); MIC ([5]; MG1655, read-out: MIC mutant, mutant CH5059 raised against 8g, ackA Arg91Ser): 16 µg/mL (≈ 28.6 µM); MIC ([5]; MG1655, read-out: MIC mutant, mutant CH5062 raised against 8g, ackA Gly241Asp): 16 µg/mL (≈ 28.6 µM); MIC ([5]; MG1655, read-out: MIC mutant, mutant CH5063 raised against 8g, ackA Arg91Leu): 16 µg/mL (≈ 28.6 µM); fold increase of MIC ([5]; mutant CH5053 vs parent E. coli MG1655 ΔtolC): 4; fold increase of MIC ([5]; mutant CH5054 vs parent E. coli MG1655 ΔtolC): 4; fold increase of MIC ([5]; mutant CH5055 vs parent E. coli MG1655 ΔtolC): 4; fold increase of MIC ([5]; mutant CH5056 vs parent E. coli MG1655 ΔtolC): 4; fold increase of MIC ([5]; mutant CH5057 vs parent E. coli MG1655 ΔtolC): 2; fold increase of MIC ([5]; mutant CH5058 vs parent E. coli MG1655 ΔtolC): 4; fold increase of MIC ([5]; mutant CH5059 vs parent E. coli MG1655 ΔtolC): 4; fold increase of MIC ([5]; mutant CH5062 vs parent E. coli MG1655 ΔtolC): 4; fold increase of MIC ([5]; mutant CH5063 vs parent E. coli MG1655 ΔtolC): 4; MIC ([11]; PAO1, read-out: MIC Pa WT): > 128 µg/mL
Nc1nc(Nc2ccc3nc(-c4ccc(F)cc4)cc(N)c3c2)cc(N2CCC(N)CC2)n1 [Compound 8j, N^6-(2-Amino-6-(4-aminopiperidin-1-yl)pyrimidin-4-yl)-2-(4-fluorophenyl)quinoline-4,6-diamine] | 5.21 and 5.22 | >128 | 32 (≈ 72 µM) | 44.5 | 8 (≈ 18 µM) | 8 (≈ 18 µM) | 22 | 9.8 | 128 (≈ 288 µM) | 4.68 | 4.67 | 16 (≈ 36 µM) | 64 (≈ 144 µM) | 4 (≈ 9 µM) | MIC ([13]; Pseudomonas aeruginosa, PAO1, read-out: MIC mutant): 32 µg/mL (≈ 72 µM); fold increase of MIC ([13]; mutant CH5071 vs parent P. aeruginosa PAO1): 8; MIC mutant ([13]; mutant CH5072 raised against 8j, phoQ Leu158fs): 32 µg/mL (≈ 72 µM); fold increase of MIC ([13]; mutant CH5072 vs parent P. aeruginosa PAO1): 8; MIC mutant ([13]; mutant CH5073 raised against 8j, basS (pmrB) Ser257Asn): 32 µg/mL (≈ 72 µM); fold increase of MIC ([13]; mutant CH5073 vs parent P. aeruginosa PAO1): 8; MIC mutant ([13]; mutant CH5075 raised against 8j, basS (pmrB) Ala29Glu): 32 µg/mL (≈ 72 µM); fold increase of MIC ([13]; mutant CH5075 vs parent P. aeruginosa PAO1): 8; MIC mutant ([13]; mutant CH5077 raised against 8j, phoQ Ser151 stop codon): 32 µg/mL (≈ 72 µM); fold increase of MIC ([13]; mutant CH5077 vs parent P. aeruginosa PAO1): 8
CNCCN(C)c1cc(Nc2ccc3nc(-c4ccc(F)cc4)cc(N)c3c2)nc(N)n1 [Compound 8m, N^4-(4-Amino-2-(4-fluorophenyl)quinolin-6-yl)-N^6-methyl-N^6-(2-(methylamino)ethyl)pyrimidine-2,4,6-triamine] | 4.80 | >64 | > 64 | 21.6 | 32 (≈ 74 µM) | 16 (≈ 37 µM) | 7.6 | 3.3 | > 64 | 4.72 | 4.73 | 32 (≈ 74 µM) | > 64 | 32 (≈ 74 µM) | 
CCOc1cc(Nc2ccc3nc(-c4ccc(F)cc4)cc(N)c3c2)nc(N)n1 [Compound 9a, N^6-(2-Amino-6-ethoxypyrimidin-4-yl)-2-(4-fluorophenyl)quinoline-4,6-diamine] | 6.05 | 64 (≈ 164 µM) | 2 (≈ 5.12 µM) | 3.4 | 4 (≈ 10.2 µM) | 16 (≈ 41 µM) | 1.6 | 0.6 | 2 (≈ 5.12 µM) | 5.28 | 5.27 | 2 (≈ 5.12 µM) | 64 (≈ 164 µM) | > 128 | 
Nc1nc(Nc2ccc3nc(-c4ccc(F)cc4)cc(N)c3c2)cc(OCCO)n1 [Compound 9b, 2-((2-Amino-6-((4-amino-2-(4-fluorophenyl)quinolin-6-yl)amino)pyrimidin-4-yl)oxy)ethan-1-ol] | 5.60 and 5.61 | 32 (≈ 78.7 µM) | 16 (≈ 39.4 µM) | 9.8 | 16 (≈ 39.4 µM) | 32 (≈ 78.7 µM) | 8 | 3.3 | 32 (≈ 78.7 µM) | 4.89 | 4.89 | 8 (≈ 19.7 µM) | 32 (≈ 78.7 µM) | ≥ 64 | 
Nc1cc(-c2ccc(F)cc2)nc2ccc(Nc3cc(N4CCNCC4)ncn3)cc12 [Compound 15, 2-(4-Fluorophenyl)-N^6-(6-(piperazin-1-yl)pyrimidin-4-yl)quinoline-4,6-diamine] | 5.22 | >64 | > 64 | > 42 | 16 (≈ 38.5 µM) | 8 (≈ 19.3 µM) | 1.7 | 0.7 | > 64 | 4.64 | 4.68 | 16 (≈ 38.5 µM) | > 64 | 32 (≈ 77 µM) | 
CO[C@H]1/C=C/O[C@@]2(C)Oc3c(C)c(O)c4c(O)c(c(/C=N/N5CCN(C)CC5)c(O)c4c3C2=O)NC(=O)/C(C)=C\C=C\[C@H](C)[C@H](O)[C@@H](C)[C@@H](O)[C@@H](C)[C@H](OC(C)=O)[C@@H]1C [Rifampicin, reference compound] |  |  |  |  |  |  |  |  |  |  |  |  |  |  | MIC [6, 19]: 0.0003 µM; cytotoxicity HepG2 TD50 (HepG2 cells): 75 µM; cytotoxicity HepG2 TD99 (HepG2 cells): ≥ 100 µM
COc1nc2ccc(Br)cc2cc1[C@@H](c1ccccc1)[C@@](O)(CCN(C)C)c1cccc2ccccc12 [bedaquiline, reference compound] |  |  |  |  |  |  |  |  |  |  |  |  |  |  | MIC [6, 19]: 0.37 µM; cytotoxicity HepG2 TD50 (HepG2 cells): 50 µM; cytotoxicity HepG2 TD99 (HepG2 cells): ≥ 100 µM
